The values that follow come from PubChem BioAssay (NCI).

Several values for one entry are separate records, joined by “and”; a condition that tells them apart may be missing. Equal entries are not always repeated.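 Tested at 5 concentrations; 48 h exposure; 96-well plates; endpoints linearly interpolated, else capped at highest concentration. GI50: concentration for 50% inhibition of growth. The concentration for full growth arrest is given as TGI.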

Some test systems named below: UO-31 renal; UACC-257 melanoma; SW-620 colon; K-562 leukemia; CAKI-1 renal; NCI-H460 lung; SNB-75 CNS; OVCAR-4 ovarian; MALME-3M melanoma; HOP-62 NSCLC.
Common to all, as to assay: NCI anticancer screen, dose series, 48 h

Consider `Cc1ccc(CCC(=O)C(=O)O)s1`, for which the TGI in the test with UO-31 renal is over 100 µM; with UACC-257 melanoma, over 100 µM; with SW-620 colon, over 100 µM; with K-562 leukemia, over 100 µM; in the test on CAKI-1 renal, 90.3 µM; with NCI-H460 lung, over 100 µM. The TGI with SNB-75 CNS, in the test with OVCAR-4 ovarian, in the test with MALME-3M melanoma and with HOP-62 NSCLC was over 100 µM in each case.
With `COc1ccc2nc3cc(Cl)ccc3c(NCCNc3c4ccc(Cl)cc4nc4ccc(OC)cc34)c2c1`, the GI50 with UACC-257 melanoma is 2.06 µM; with SW-620 colon, 1.1 µM; in the test with CAKI-1 renal, 1.72 µM; in the test on MALME-3M melanoma, 2.07 µM. Further, the TGI was found to be 3.69 µM in the test with UACC-257 melanoma, 2.98 µM in the test on SW-620 colon, 3.18 µM with CAKI-1 renal and 3.76 µM with MALME-3M melanoma.
As to `CCCCNC(=O)/N=C/c1c(O)c2ccccc2oc1=O`, the TGI in the test with UO-31 renal is 56.3 µM; with UACC-257 melanoma, over 100 µM; in the test on SW-620 colon, over 100 µM; in the test with NCI-H460 lung, over 100 µM; in the test with OVCAR-4 ovarian, over 100 µM; with HOP-62 NSCLC it was over 100 µM.
Turning to `COc1ccc(Sc2ccccc2N)cc1`, the TGI is 92.9 µM in the test on UO-31 renal; over 100 µM in the test with UACC-257 melanoma; over 100 µM with SW-620 colon; over 100 µM in the test on K-562 leukemia; over 100 µM in the test with NCI-H460 lung; 62.2 µM in the test on SNB-75 CNS. Moreover, the TGI in the test on OVCAR-4 ovarian, in the test with MALME-3M melanoma and in the test on HOP-62 NSCLC was over 100 µM in each case.
Turning to `O=C(N/N=C/c1cc(Br)cc(Br)c1[O-])c1ccccc1O.O=C(N/N=C/c1cc(Br)cc(Br)c1[O-])c1ccccc1O.[Ni+2]`, the TGI with UO-31 renal was found to be 8.5 µM; in the test on UACC-257 melanoma, 2.28 µM; in the test on SW-620 colon, 1.94 µM; in the test with K-562 leukemia, 4.88 µM; with CAKI-1 renal, 1.53 µM; with NCI-H460 lung, 1.66 µM. Further, the TGI with SNB-75 CNS came out at 4.9 µM; in the test on OVCAR-4 ovarian, 0.825 µM; in the test with MALME-3M melanoma it was 1.98 µM; in the test with HOP-62 NSCLC, 1.82 µM.
Regarding `COC(=O)C(NC(=O)c1ccccc1)C(c1ccc(Cl)cc1)P(=O)(OC)OC` (stereo not given), the TGI in the test on UO-31 renal, with UACC-257 melanoma, with SW-620 colon, with K-562 leukemia, in the test on CAKI-1 renal and with NCI-H460 lung was over 100 µM throughout. The TGI with SNB-75 CNS, in the test on OVCAR-4 ovarian and in the test on HOP-62 NSCLC was over 100 µM in each case.
As to `NCCCNCCCCN1CC1`, the TGI was over 100 µM in the test on UO-31 renal; 4.71 µM with UACC-257 melanoma; over 20.7 µM in the test on K-562 leukemia; 0.407 µM in the test with CAKI-1 renal; over 100 µM in the test on NCI-H460 lung; 4.3 µM in the test on SNB-75 CNS. Moreover, the TGI came to 1.53 µM in the test on OVCAR-4 ovarian and 14.1 µM with HOP-62 NSCLC.
As to `COc1ccc(N2NC(c3ccccc3)(c3ccccc3)C(C)C2=O)cc1` (stereo not given), the TGI with UO-31 renal, in the test on UACC-257 melanoma, in the test with SW-620 colon, in the test on K-562 leukemia, with CAKI-1 renal and in the test with NCI-H460 lung was over 100 µM in each case. Also, the TGI in the test on SNB-75 CNS, with OVCAR-4 ovarian, in the test on MALME-3M melanoma and in the test on HOP-62 NSCLC was over 100 µM each time.
Regarding `COc1ccc(-c2nn(-c3ccc(NC(=O)Nc4ccc(Cl)c(C(F)(F)F)c4)cc3)cc2-c2ccncc2)cc1Cl`, the GI50 with UO-31 renal was 1.1 µM; in the test on UACC-257 melanoma it was 1.94 µM; in the test on SW-620 colon it was 1.93 µM; with K-562 leukemia it was 1.25 µM; in the test on CAKI-1 renal it was 1.78 µM; with NCI-H460 lung, 1.4 µM. For the same molecule, the GI50 is 1.36 µM in the test on SNB-75 CNS, 1.98 µM in the test on OVCAR-4 ovarian, 1.59 µM with MALME-3M melanoma and 1.81 µM in the test on HOP-62 NSCLC. Also, the TGI turned out to be 3.05 µM in the test on UO-31 renal; 4.91 µM with UACC-257 melanoma; 4.4 µM with SW-620 colon; 8.55 µM in the test on K-562 leukemia; 5.18 µM in the test with CAKI-1 renal; 3.36 µM with NCI-H460 lung. For the same molecule, the TGI in the test with SNB-75 CNS came out at 7.86 µM; in the test on OVCAR-4 ovarian, 21.9 µM; with MALME-3M melanoma, 5.09 µM; in the test with HOP-62 NSCLC, 4.45 µM.
In the case of `CN(C)/N=N/c1nc[nH]c1C(N)=O`, the GI50 in the test with UO-31 renal was 24.5 µM; in the test on UACC-257 melanoma it was 225 µM; in the test with SW-620 colon, 32.9 µM; with K-562 leukemia it was 39 µM; in the test with NCI-H460 lung it was 59.4 µM; with SNB-75 CNS, 126 µM. The results for the GI50 in the test on OVCAR-4 ovarian, with MALME-3M melanoma and in the test on HOP-62 NSCLC were 40.1 µM, 243 µM and 43.8 µM, respectively. The TGI in the test with UO-31 renal was 96.9 µM and > 793 µM; in the test on UACC-257 melanoma, over 1000 µM; in the test on SW-620 colon, over 1000 µM; with CAKI-1 renal, 71.7 µM and 539 µM; in the test on NCI-H460 lung it was over 1000 µM; in the test with SNB-75 CNS, 82.2 µM and > 763 µM. Moreover, the TGI with OVCAR-4 ovarian and in the test with MALME-3M melanoma was over 1000 µM throughout.
Turning to `COC1OC2=CCC3C(=O)NC(=O)C3C2[C@H](OCc2ccccc2)C1OCc1ccccc1` (stereo not given in full), the TGI in the test with UO-31 renal was 32.2 µM; in the test with UACC-257 melanoma, 3.68 µM; in the test with SW-620 colon it was 2.95 µM; in the test on NCI-H460 lung, 32.6 µM; in the test on SNB-75 CNS, 31.5 µM; with OVCAR-4 ovarian, 5.32 µM. Further, the TGI in the test on MALME-3M melanoma was 3.26 µM; in the test on HOP-62 NSCLC, 31.7 µM.
